Like-named read-outs stand apart in the source and are kept apart here.
Key:
Assay type in all cases: in vivo
redroot pigweed [1] = assay: Upland foliar application test by mixed formulations, concentration gradient (Test 8)
Experimental: (§1) Resin-made 1/10,000-are pots were filled with the soil of an upland field. Redroot pigweed and johnsongrass were separately seeded and were allowed to germinate in a green house. When each plant grew to the stage of 2-3 leaves, emulsions formulated with concentration gradient from predetermined amounts of two test compounds of different kinds in a similar manner to the method described in Formulation Example 16 was diluted with water to a predetermined dilution rate and then sprayed at an application rate equal to 5 l per are onto the foliage of each plant by means of a pressure-operated ULV (ultra low volume) sprayer. Influence to the weeds were observed on the 40th day after the spray of the herbicides. The results are shown in Table 9, In the table, Ea have the same meanings as in Test 7, and Ea>Ec indicates the existence of synergistic action while Ea<Ec indicates the existence of antagonistic action.

johnsongrass [2] = assay: as above
Experimental: as §1

redroot pigweed [3] = assay: Upland foliar application test by mixed formulations (Test 7); conditions: Amaranthus retroflexus, 720 h, read-out: Herbicidal effects (%) Redrood pigweed Ea
Experimental: (§2) Resin-made 1/10,000-are pots were filled with the soil of an upland field. Redroot pigweed, morningglories, johnsongrass, barnyardgrass and green foxtail were separately seeded and were allowed to germinate in a green house. When each plant grew to the stage of 2-3 leaves, an emulsion formulated from predetermined amounts of two test compounds of different kinds in a similar manner to the method described in Formulation Example 16 was diluted with water to a predetermined dilution rate and then sprayed at an application rate equal to 5 l per are onto the foliage of each plant by means of a pressure-operated ULV (ultra low volume) sprayer. Influence to the weeds were observed on the 30th day after the spray of the herbicides. In the table, each Ea means an acutally measured value of herbicidal activities when two kinds of herbicides were mixed. Each Ec is an expected value for herbicidal activities, calculated in accordance with the below-described calculation formula proposed by Colby et al. [Colby, S. R., Weed 15, 20-22 (1967)]. Ea>Ec indicates the existence of synergistic action while […] action. [formula] Ec: Growth inhibition rate (%) expected when Ingredient I and Ingredient II are mixed.
(§3) Ex: Growth inhibition rate (%) when treated with Ingredient I alone.
(§4) Ey: Growth inhibition rate (%) when treated with Ingredient II alone.

johnsongrass [4] = assay: as above; conditions: Sorghum halepense, 720 h; for pest or weed control at 1000 g/ha: read-out: Herbicidal effects (%) Johnsongrass Ea, applied alone, 1 kg/ha, foliar, 30th day
Experimental: as §2, §3, §4

morningglories = assay: as above; conditions: Ipomoea, 720 h, applied alone, 0.3 kg/ha, 30th day, read-out: Herbicidal effects (%) Morningglory Ea
Experimental: as §2, §3, §4

barnyardgrass = assay: as above; conditions: Echinochloa crus-galli, 720 h, applied alone, 0.3 kg/ha, 30th day, read-out: Herbicidal effects (%) Barnyardgrass Ea
Experimental: as §2, §3, §4

green foxtail = assay: as above; conditions: Setaria viridis, 720 h, applied alone, 0.3 kg/ha, 30th day, read-out: Herbicidal effects (%) Green foxtail Ea
Experimental: as §2, §3, §4

[5] = Amaranthus retroflexus, 960 h, applied alone, 2 g/a, 40th day, read-out: Herbicidal effects Redrood pigweed Ea
[6] = Amaranthus retroflexus, 960 h, applied alone, 4 g/a, 40th day, read-out: Herbicidal effects Redrood pigweed Ea
[7] = Amaranthus retroflexus, 960 h, applied alone, 8 g/a, 40th day, read-out: Herbicidal effects Redrood pigweed Ea
[8] = Sorghum halepense, 960 h, applied alone, 2 g/a, 40th day, read-out: Herbicidal effects Johnsongrass Ea
[9] = Sorghum halepense, 960 h, applied alone, 4 g/a, 40th day, read-out: Herbicidal effects Johnsongrass Ea
[10] = Sorghum halepense, 960 h, applied alone, 8 g/a, 40th day, read-out: Herbicidal effects Johnsongrass Ea
[11] = Amaranthus retroflexus, 960 h, read-out: Herbicidal effects Redrood pigweed Ea
[12] = Sorghum halepense, 960 h, read-out: Herbicidal effects Johnsongrass Ea

2-methylthio-4-methylamino-6-isopropylamino-1,3,5-triazine [Ametryn]
Herbicidal effects Redrood pigweed Ea (redroot pigweed [1]; applied alone, 2 g/a, 40th day): 10% | Herbicidal effects Redrood pigweed Ea (redroot pigweed [1]; applied alone, 4 g/a, 40th day): 20% | Herbicidal effects Redrood pigweed Ea (redroot pigweed [1]; applied alone, 8 g/a, 40th day): 30% | Herbicidal effects Johnsongrass Ea (johnsongrass [2]; applied alone, 2 g/a, 40th day): 0% | Herbicidal effects Johnsongrass Ea (johnsongrass [2]; applied alone, 4 g/a, 40th day): 10% | Herbicidal effects Johnsongrass Ea (johnsongrass [2]; applied alone, 8 g/a, 40th day): 20%

CC(C)c1ccc(NC(=O)N(C)C)cc1 [Isoproturon, 3-(4-isopropylphenyl)-1,1-dimethylurea]
pest or weed control at 200 g/ha (redroot pigweed [1]; [5]): 10% | pest or weed control at 400 g/ha (redroot pigweed [1]; [6]): 20% | pest or weed control at 800 g/ha (redroot pigweed [1]; [7]): 40% | pest or weed control at 200 g/ha (johnsongrass [2]; [8]): 0% | pest or weed control at 400 g/ha (johnsongrass [2]; [9]): 10% | pest or weed control at 800 g/ha (johnsongrass [2]; [10]): 20%

CCCC(C)C(=O)Nc1ccc(C(C)C)c(Cl)c1 (stereo not drawn) [MT-5950, N-(3-chloro-4-isopropylphenyl)-2-methylpentamide]
pest or weed control at 200 g/ha (redroot pigweed [1]; [5]): 30% | pest or weed control at 400 g/ha (redroot pigweed [1]; [6]): 70% | pest or weed control at 800 g/ha (redroot pigweed [1]; [7]): 85% | pest or weed control at 200 g/ha (johnsongrass [2]; [8]): 10% | pest or weed control at 400 g/ha (johnsongrass [2]; [9]): 10% | pest or weed control at 800 g/ha (johnsongrass [2]; [10]): 20%

CCc1cccc(CC)c1N(COC)C(=O)CCl [alachlor, N-methoxymethyl-2',6'-diethyl-2-chloroacetanilide, reference compound]
pest or weed control at 1000 g/ha (redroot pigweed [3]): 40% | pest or weed control at 1000 g/ha (johnsongrass [4]): 30%

CCNc1nc(Cl)nc(NC(C)C)n1 [atrazine, 2-chloro-4-ethylamino-6-isopropylamino-1,3,5-triazine]
pest or weed control at 800 g/ha (redroot pigweed [3]): 40% | pest or weed control at 800 g/ha (johnsongrass [4]; read-out: Herbicidal effects (%) Johnsongrass Ea, applied alone, 0.8 kg/ha, foliar, 30th day): 10% | pest or weed control at 200 g/ha (redroot pigweed [1]; [11]): 10% | pest or weed control at 400 g/ha (redroot pigweed [1]; [11]): 30% | pest or weed control at 800 g/ha (redroot pigweed [1]; [11]): 40% | pest or weed control at 200 g/ha (johnsongrass [2]; [12]): 0% | pest or weed control at 400 g/ha (johnsongrass [2]; [12]): 10% | pest or weed control at 800 g/ha (johnsongrass [2]; [12]): 10%

CC(C)N1C(=O)c2ccccc2NS1(=O)=O [bentazon, 3-isopropyl-(1H)-2,1,3-benzothiadiazin-4-(3H)-one-2,2-dioxide]
pest or weed control at 500 g/ha (redroot pigweed [3]; applied alone, 0.5 kg/ha, 30th day): 40% | pest or weed control at 500 g/ha (johnsongrass [4]; applied alone, 0.5 kg/ha, 30th day, read-out: Herbicidal effects (%) Johnsongrass Ea): 0% | pest or weed control at 200 g/ha (redroot pigweed [1]; [5]): 30% | pest or weed control at 400 g/ha (redroot pigweed [1]; [6]): 40% | pest or weed control at 800 g/ha (redroot pigweed [1]; [7]): 70% | pest or weed control at 200 g/ha (johnsongrass [2]; [8]): 0% | pest or weed control at 400 g/ha (johnsongrass [2]; [9]): 0% | pest or weed control at 800 g/ha (johnsongrass [2]; [10]): 20%

O=C(O)c1cc(Oc2ccc(C(F)(F)F)cc2Cl)ccc1[N+](=O)[O-] [blazer, reference compound]
pest or weed control at 300 g/ha (morningglories): 100% | pest or weed control at 300 g/ha (redroot pigweed [3]; applied alone, 0.3 kg/ha, 30th day): 100% | pest or weed control at 300 g/ha (barnyardgrass): 100% | pest or weed control at 300 g/ha (green foxtail): 40%

CCNc1nc(Cl)nc(NC(C)(C)C#N)n1 [cyanazine, 2-(2-chloro-4-ethylamino-1,3,5-triazine-6-ylamino)-2-methylpropionitrile]
pest or weed control at 1000 g/ha (redroot pigweed [3]): 40% | pest or weed control at 1000 g/ha (johnsongrass [4]): 10% | pest or weed control at 400 g/ha (redroot pigweed [1]; [11]): 10% | pest or weed control at 800 g/ha (redroot pigweed [1]; [11]): 30% | pest or weed control at 1600 g/ha (redroot pigweed [1]; [11]): 50% | pest or weed control at 400 g/ha (johnsongrass [2]; [12]): 0% | pest or weed control at 800 g/ha (johnsongrass [2]; [12]): 10% | pest or weed control at 1600 g/ha (johnsongrass [2]; [12]): 20%

Source: patent publication US5053070A, “Pyrimidine derivatives, preparation processes thereof, herbicide containing the same, and herbicidal compositions containing the same along with other active ingredient” (Mitsui Toatsu Chemicals, Incorporated, priority 1988, dated 1991)
